Common to all, as to format: in vivo
Assay [1] deals with green foxtail (Setaria viridis (L.) P. Beauv.). The assay can be described thus: Test Example 2: herbicidal effect by soil application to upland field. The settings on record: soil surface spray, upland field soil, 1,000 g active ingredient per hectare, 21st day after application. In a few lines: (§1)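 Herbicidal activity was graded on a standard scale on day 21 after soil application. The covered, freshly sown pots of field soil received an aqueous wettable-powder spray delivering 1,000 g active ingredient/ha at 1,000 liters/ha and were kept in a greenhouse.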

Assay [2] concerns velvetleaf (Abutilon theophrasti medicus). Described as above. The conditions noted are these: soil surface spray, upland field soil, 1,000 g active ingredient per hectare, 21st day after application. A digest of the protocol:
as §1

Assay [3] deals with barnyardgrass (Echinochloa crus-galli (L.) P. Beauv. var. crus-galli). The description is as above. The conditions noted are these: soil surface spray, upland field soil, 1,000 g active ingredient per hectare, 21st day after application. In a few lines: as §1
Assay [4] has as its system slender amaranth (Amaranthus viridis L.). The description is as above. The conditions noted are these: soil surface spray, upland field soil, 1,000 g active ingredient per hectare, 21st day after application. In a few lines:
as §1

For assay [5], the system named is heartshape false pickerelweed (Monochoria vaginalis (Burm.f.) C.Presl). The assay can be described thus: Test Example 1: herbicidal effect by soil application to paddy field. The conditions noted are these: paddy field soil application; active ingredient 1,000 g per 1 hectare; wettable powder added dropwise to water surface the day after sowing; examined on the 21st day after application. A digest of the protocol:
(§2)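 Under greenhouse conditions, seeds sown on puddled paddy soil in 100 cm2 pots under 3 cm of standing water received the test compound; injury was assessed with a standard scoring scheme three weeks (day 21) after treatment.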

Assay [6] has as its system early watergrass (Echinochloa oryzicola Vasing). The description is as above. The conditions noted are these: paddy field soil application; active ingredient 1,000 g per 1 hectare; wettable powder added dropwise to water surface the day after sowing; examined on the 21st day after application. A digest of the protocol: as §2
For assay [7], the system named is Japanese bulrush (Scirpus juncoides Roxb.). The assay is described as above. The conditions noted are these: paddy field soil application; active ingredient 1,000 g per 1 hectare; wettable powder added dropwise to water surface the day after sowing; examined on the 21st day after application. In a few lines:
as §2

Assay [8] deals with green foxtail (Setaria viridis (L.) P. Beauv.). The assay can be described thus: Test Example 3: herbicidal effect by application to upland field (foliage treatment). The conditions noted are these: 14th day after application; for herbicidal effect (index), Green Foxtail: foliage treatment, plants grown two weeks, 1,000 g active ingredient per hectare; for herbicidal effect, Green Foxtail: foliage treatment, 1,000 g active ingredient per 1 hectare, greenhouse. In a few lines: (§3)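 Effect scores come from a standard grading 14 days after plants, grown from seed for two weeks in field soil in a greenhouse, were sprayed over the top with wettable powder in water at 1,000 g active ingredient per hectare.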

Assay [9] concerns velvetleaf (Abutilon theophrasti medicus). Described as above. The conditions noted are these: 14th day after application; for herbicidal effect (index), Velvetleaf: foliage treatment, plants grown two weeks, 1,000 g active ingredient per hectare; for herbicidal effect, Velvetleaf: foliage treatment, 1,000 g active ingredient per 1 hectare, greenhouse. A digest of the protocol: as §3

The test system of assay [10] is barnyardgrass (Echinochloa crus-galli (L.) P. Beauv. var. crus-galli). Described as above. The settings on record: 14th day after application; for herbicidal effect (index), Barnyardgrass: foliage treatment, plants grown two weeks, 1,000 g active ingredient per hectare; for herbicidal effect, Barnyardgrass: foliage treatment, 1,000 g active ingredient per 1 hectare, greenhouse. In a few lines: as §3

For assay [11], the system named is slender amaranth (Amaranthus viridis L.). The assay is described as above. The settings on record: 14th day after application; for herbicidal effect (index), Slender Amaranth: foliage treatment, plants grown two weeks, 1,000 g active ingredient per hectare; for herbicidal effect, Slender Amaranth: foliage treatment, 1,000 g active ingredient per 1 hectare, greenhouse. In a few lines: as §3

In the case of `O=C1CCCC(O)=C1C(=O)c1ccc(C(F)(F)F)n(-c2ccccc2)c1=O` [I-72, 2-[1,2-dihydro-2-oxo-1-phenyl-6-(trifluoromethyl)pyridine-3-carbonyl]-3-hydroxy-2-cyclohexen-1-one], the “herbicidal effect (index), Green Foxtail” value is 5 (90% or more of herbicidal effect and crop phytotoxicity) in [1]; 5 (90% or more of herbicidal effect and crop phytotoxicity) in [8]. For the same compound, the “herbicidal effect (index), Velvetleaf” value in assay [2] was 5 (90% or more of herbicidal effect and crop phytotoxicity); in assay [9], 5 (90% or more of herbicidal effect and crop phytotoxicity). In addition, the “herbicidal effect (index), Barnyardgrass” value in assay [3] was 5 (90% or more of herbicidal effect and crop phytotoxicity); in [10] it was 5 (90% or more of herbicidal effect and crop phytotoxicity). Moreover, the “herbicidal effect (index), Slender Amaranth” value in assay [4] is 5 (90% or more of herbicidal effect and crop phytotoxicity); in [11], 5 (90% or more of herbicidal effect and crop phytotoxicity). Moreover, the “herbicidal effect, Monochoria vaginalis (Burm. f.) C. Presl” value (“herbicidal effect, Monochoria vaginalis” below) in [5] is 5 (90% or more of herbicidal effect and crop phytotoxicity). The “herbicidal effect, Echinochloa oryzicola Vasing” value in assay [6] is 5 (90% or more of herbicidal effect and crop phytotoxicity). Also, the “herbicidal effect, Scirpus juncoides Roxb.” value in [7] is 5 (90% or more of herbicidal effect and crop phytotoxicity).

As to `O=C1CCCC(O)=C1C(=O)c1ccc(C(F)(F)F)n(Cc2ccccc2)c1=O` [I-114], the “herbicidal effect (index), Green Foxtail” value in assay [1] was 4 (70 to less than 90% of herbicidal effect and crop phytotoxicity). In addition, the “herbicidal effect (index), Velvetleaf” value in [2] was 5 (90% or more of herbicidal effect and crop phytotoxicity). The “herbicidal effect (index), Barnyardgrass” value in assay [3] is 5 (90% or more of herbicidal effect and crop phytotoxicity). In addition, the “herbicidal effect (index), Slender Amaranth” value in assay [4] was 5 (90% or more of herbicidal effect and crop phytotoxicity). Further, the “herbicidal effect, Monochoria vaginalis” value in assay [5] was 5 (90% or more of herbicidal effect and crop phytotoxicity). Further, in assay [6], the “herbicidal effect, Echinochloa oryzicola Vasing” value is 5 (90% or more of herbicidal effect and crop phytotoxicity). Also, in assay [7], the “herbicidal effect, Scirpus juncoides Roxb.” value is 5 (90% or more of herbicidal effect and crop phytotoxicity). Further, the “herbicidal effect, Green Foxtail” value in assay [8] is 4 (70 to less than 90% of herbicidal effect and crop phytotoxicity). The “herbicidal effect, Velvetleaf” value in assay [9] was 5 (90% or more of herbicidal effect and crop phytotoxicity). In assay [10], the “herbicidal effect, Barnyardgrass” value is 5 (90% or more of herbicidal effect and crop phytotoxicity). The “herbicidal effect, Slender Amaranth” value in assay [11] was 5 (90% or more of herbicidal effect and crop phytotoxicity).

In the case of `CC(C)(C)SCn1c(C(F)(F)F)ccc(C(=O)C2=C(O)CCCC2=O)c1=O` [I-55], the “herbicidal effect (index), Green Foxtail” value is 5 (90% or more of herbicidal effect and crop phytotoxicity) in assay [1]; 5 (90% or more of herbicidal effect and crop phytotoxicity) in assay [8]. For the same compound, the “herbicidal effect (index), Velvetleaf” value in [2] was 5 (90% or more of herbicidal effect and crop phytotoxicity); in [9], 5 (90% or more of herbicidal effect and crop phytotoxicity). For the same compound, the “herbicidal effect (index), Barnyardgrass” value in assay [3] is 5 (90% or more of herbicidal effect and crop phytotoxicity); in [10] it was 5 (90% or more of herbicidal effect and crop phytotoxicity). Further, the “herbicidal effect (index), Slender Amaranth” value in [4] is 5 (90% or more of herbicidal effect and crop phytotoxicity); in assay [11], 5 (90% or more of herbicidal effect and crop phytotoxicity). Further, the “herbicidal effect, Monochoria vaginalis” value in [5] was 5 (90% or more of herbicidal effect and crop phytotoxicity). Also, the “herbicidal effect, Echinochloa oryzicola Vasing” value in assay [6] is 5 (90% or more of herbicidal effect and crop phytotoxicity). Besides, the “herbicidal effect, Scirpus juncoides Roxb.” value in [7] is 5 (90% or more of herbicidal effect and crop phytotoxicity).

`O=C1CCCC(O)=C1C(=O)c1ccc(C(F)(F)F)n(-c2ccccc2F)c1=O` [I-91]: the “herbicidal effect (index), Green Foxtail” value in assay [1] was 5 (90% or more of herbicidal effect and crop phytotoxicity); in assay [8], 4 (70 to less than 90% of herbicidal effect and crop phytotoxicity). In addition, the “herbicidal effect (index), Velvetleaf” value in [2] was 5 (90% or more of herbicidal effect and crop phytotoxicity); in assay [9] it was 5 (90% or more of herbicidal effect and crop phytotoxicity). For the same compound, the “herbicidal effect (index), Barnyardgrass” value was 5 (90% or more of herbicidal effect and crop phytotoxicity) in assay [3]; 5 (90% or more of herbicidal effect and crop phytotoxicity) in [10]. The “herbicidal effect (index), Slender Amaranth” value in assay [4] was 5 (90% or more of herbicidal effect and crop phytotoxicity); in assay [11], 5 (90% or more of herbicidal effect and crop phytotoxicity). In assay [5], the “herbicidal effect, Monochoria vaginalis” value was 5 (90% or more of herbicidal effect and crop phytotoxicity). In assay [6], the “herbicidal effect, Echinochloa oryzicola Vasing” value was 5 (90% or more of herbicidal effect and crop phytotoxicity). Further, the “herbicidal effect, Scirpus juncoides Roxb.” value in [7] is 5 (90% or more of herbicidal effect and crop phytotoxicity).

For `Cn1ncc(C(=O)c2ccc(Cl)n(C)c2=O)c1O` [IV-243], in [1], the “herbicidal effect (index), Green Foxtail” value was 3 (50 to less than 70% of herbicidal effect and crop phytotoxicity). The “herbicidal effect (index), Velvetleaf” value in [2] is 5 (90% or more of herbicidal effect and crop phytotoxicity). Moreover, the “herbicidal effect (index), Barnyardgrass” value in [3] is 5 (90% or more of herbicidal effect and crop phytotoxicity). Moreover, in [4], the “herbicidal effect (index), Slender Amaranth” value is 5 (90% or more of herbicidal effect and crop phytotoxicity). Moreover, in assay [5], the “herbicidal effect, Monochoria vaginalis” value is 5 (90% or more of herbicidal effect and crop phytotoxicity). For the same compound, in assay [6], the “herbicidal effect, Echinochloa oryzicola Vasing” value was 5 (90% or more of herbicidal effect and crop phytotoxicity). In assay [7], the “herbicidal effect, Scirpus juncoides Roxb.” value was 5 (90% or more of herbicidal effect and crop phytotoxicity). Besides, the “herbicidal effect, Green Foxtail” value in assay [8] was 4 (70 to less than 90% of herbicidal effect and crop phytotoxicity). The “herbicidal effect, Velvetleaf” value in assay [9] was 5 (90% or more of herbicidal effect and crop phytotoxicity). Also, the “herbicidal effect, Barnyardgrass” value in [10] is 5 (90% or more of herbicidal effect and crop phytotoxicity). Also, the “herbicidal effect, Slender Amaranth” value in [11] is 5 (90% or more of herbicidal effect and crop phytotoxicity).

In the case of `Cn1ncc(C(=O)c2ccc(C(F)(F)F)n(C)c2=O)c1OCc1ccccc1` [IV-190], in assay [1], the “herbicidal effect (index), Green Foxtail” value is 5 (90% or more of herbicidal effect and crop phytotoxicity). Further, the “herbicidal effect (index), Velvetleaf” value in [2] is 5 (90% or more of herbicidal effect and crop phytotoxicity). For the same compound, the “herbicidal effect (index), Barnyardgrass” value in [3] is 5 (90% or more of herbicidal effect and crop phytotoxicity). Also, the “herbicidal effect (index), Slender Amaranth” value in assay [4] is 5 (90% or more of herbicidal effect and crop phytotoxicity). The “herbicidal effect, Monochoria vaginalis” value in [5] was 5 (90% or more of herbicidal effect and crop phytotoxicity). The “herbicidal effect, Echinochloa oryzicola Vasing” value in assay [6] was 5 (90% or more of herbicidal effect and crop phytotoxicity). For the same compound, the “herbicidal effect, Scirpus juncoides Roxb.” value in assay [7] is 5 (90% or more of herbicidal effect and crop phytotoxicity). Besides, the “herbicidal effect, Green Foxtail” value in assay [8] was 4 (70 to less than 90% of herbicidal effect and crop phytotoxicity). Moreover, the “herbicidal effect, Velvetleaf” value in assay [9] is 5 (90% or more of herbicidal effect and crop phytotoxicity). The “herbicidal effect, Barnyardgrass” value in assay [10] is 5 (90% or more of herbicidal effect and crop phytotoxicity). Moreover, in assay [11], the “herbicidal effect, Slender Amaranth” value was 5 (90% or more of herbicidal effect and crop phytotoxicity).

As to `Cn1c(C(F)(F)C(F)(F)F)ccc(C(=O)C2=C(O)CCCC2=O)c1=O` [I-227], in [1], the “herbicidal effect (index), Green Foxtail” value is 5 (90% or more of herbicidal effect and crop phytotoxicity). In assay [2], the “herbicidal effect (index), Velvetleaf” value was 5 (90% or more of herbicidal effect and crop phytotoxicity). Also, the “herbicidal effect (index), Barnyardgrass” value in [3] was 4 (70 to less than 90% of herbicidal effect and crop phytotoxicity). For the same compound, the “herbicidal effect (index), Slender Amaranth” value in assay [4] is 5 (90% or more of herbicidal effect and crop phytotoxicity). Further, the “herbicidal effect, Monochoria vaginalis” value in [5] was 5 (90% or more of herbicidal effect and crop phytotoxicity). Besides, the “herbicidal effect, Echinochloa oryzicola Vasing” value in assay [6] was 5 (90% or more of herbicidal effect and crop phytotoxicity). In addition, the “herbicidal effect, Scirpus juncoides Roxb.” value in assay [7] was 5 (90% or more of herbicidal effect and crop phytotoxicity). The “herbicidal effect, Green Foxtail” value in assay [8] was 5 (90% or more of herbicidal effect and crop phytotoxicity). Moreover, in [9], the “herbicidal effect, Velvetleaf” value was 5 (90% or more of herbicidal effect and crop phytotoxicity). Also, the “herbicidal effect, Barnyardgrass” value in assay [10] is 3 (50 to less than 70% of herbicidal effect and crop phytotoxicity). Moreover, the “herbicidal effect, Slender Amaranth” value in [11] is 5 (90% or more of herbicidal effect and crop phytotoxicity).

For the origin of these results see US8076487B2, “Pyridone derivative and herbicide” (Kumiai Chemical Industry Co., Ltd., priority 2006, dated 2011).
